Experimental data: paper PMC9652372, “Glycolytic flux control by drugging phosphoglycolate phosphatase” (Nature Communications, 2022)
Values after ≈ are worked out from the molar mass of the structure shown. Values joined by “and” are separate entries in the source; they are usually repeats but may differ in a detail not shown here. Equal values may be shown once. Read-outs that look alike come from different tables or passages of the source.

Experiments:
[1] = target: T1, murine PGP (Mus musculus, UniProt Q8CHP8); experiment: IC50 determination, murine PGP, pNPP dephosphorylation
T1 sequence (Q8CHP8 1-321): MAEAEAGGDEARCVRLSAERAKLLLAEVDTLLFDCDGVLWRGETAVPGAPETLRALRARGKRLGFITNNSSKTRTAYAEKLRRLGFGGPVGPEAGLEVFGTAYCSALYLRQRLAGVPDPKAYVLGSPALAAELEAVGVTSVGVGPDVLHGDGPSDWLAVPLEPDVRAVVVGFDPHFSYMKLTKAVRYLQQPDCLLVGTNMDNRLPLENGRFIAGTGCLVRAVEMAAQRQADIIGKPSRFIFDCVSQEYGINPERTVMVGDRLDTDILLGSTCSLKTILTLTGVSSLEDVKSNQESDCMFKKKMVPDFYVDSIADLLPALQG

[2] = target: T1, murine PGP; experiment: biochemical
[3] = target: T2, PGP^WT (Mus musculus, UniProt Q8CHP8); experiment: Differential scanning fluorimetry (Thermofluor); assay type: binding
T2 construct: His6 (N, cleaved yes); made in house; host or cells: Escherichia coli BL21 (DE3), pETM11, co-expressed with groES-groEL-tig
T2 sequence (Q8CHP8 1-321): T1 sequence (Q8CHP8 1-321)

[4] = target: T3, PGP (Mus musculus, UniProt Q8CHP8); experiment: Steady state kinetics of PG dephosphorylation in presence of CP1-3
T3 sequence (Q8CHP8 1-321): T1 sequence (Q8CHP8 1-321)

[5] = target: T4, murine PDXP (Mus musculus, UniProt P60487); experiment: PDXP activity towards pyridoxal 5'-phosphate (PLP); settings: phosphatase PDXP; species M.m.; substrate PLP; n.s. = no significant inhibition detectable
T4 sequence (P60487 1-292): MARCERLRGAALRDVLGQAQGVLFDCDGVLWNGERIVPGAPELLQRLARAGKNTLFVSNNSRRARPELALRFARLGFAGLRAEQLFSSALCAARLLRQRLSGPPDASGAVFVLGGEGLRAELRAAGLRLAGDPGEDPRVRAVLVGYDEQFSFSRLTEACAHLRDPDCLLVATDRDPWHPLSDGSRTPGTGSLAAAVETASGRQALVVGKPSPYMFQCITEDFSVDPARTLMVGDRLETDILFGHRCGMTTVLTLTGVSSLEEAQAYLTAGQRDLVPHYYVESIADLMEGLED

[6] = physchem; settings: organic solvent or mixture
[7] = target: T5, murine PDXP/PGP hybrid (Mus musculus, UniProt P60487+Q8CHP8); experiment: PG dephosphorylation by PDXP/PGP hybrid protein; assay type: biochemical
T5 construct: consisting of the PGP cap domain (amino acids 114–233) fused to the PDXP core domain; His6 (N, cleaved yes); made in house; host or cells: Escherichia coli BL21 (DE3), pETM11
T5 sequence (P60487 1-100): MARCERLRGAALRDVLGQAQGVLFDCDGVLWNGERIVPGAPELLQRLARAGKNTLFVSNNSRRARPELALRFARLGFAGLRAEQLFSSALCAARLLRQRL
T5 sequence (Q8CHP8 114-233): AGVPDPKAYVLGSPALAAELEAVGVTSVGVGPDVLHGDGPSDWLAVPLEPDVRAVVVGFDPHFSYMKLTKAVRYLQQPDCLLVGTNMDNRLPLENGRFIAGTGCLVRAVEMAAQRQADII
T5 sequence (P60487 208-292): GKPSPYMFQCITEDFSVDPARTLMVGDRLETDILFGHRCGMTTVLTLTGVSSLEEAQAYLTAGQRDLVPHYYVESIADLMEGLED
Protocol: After centrifugation, cells were resuspended in TNM-2 (100 mM triethanolamine, 500 mM NaCl, 20 mM imidazole, 5 mM MgCl2; pH 7.4). Cleared supernatants were loaded on a HisTrap HP nickel sepharose column in TNM-3 (50 mM triethanolamine, 500 mM NaCl, 20 mM imidazole, 5 mM MgCl2; pH 7.4), and His6-tagged proteins were eluted using a linear gradient of up to 50% TNM-4 (50 mM triethanolamine; 250 mM NaCl; 500 mM imidazole; 5 mM MgCl2; pH 7.4). Peak fractions were pooled, the His6-tag was cleaved, and untagged PDXP or PDXP/PGP was isolated, concentrated and further purified by size exclusion chromatography in TNM-5 (50 mM triethanolamine; 250 mM NaCl; 5 mM MgCl2; pH 7.4). […] Data were analyzed with GraphPad Prism 7.04.

[8] = PG dephosphorylation, increasing CP concentrations

Structure (SMILES): O=C(Nc1ccccc1C(=O)O)c1ccc(Oc2ccc(C(=O)Nc3ccccc3C(=O)O)cc2)cc1 [CP1]
- IC50 [1]: 770 ± 50 nM
- remaining activity at 25 µM ([1]; read-out: M.m PGP on pNPP, activity, control = 100.00, CP log[M] -4.60206): 3.52%
- remaining activity at 10 µM ([1]; read-out: M.m PGP on pNPP, activity, control = 100.00, CP log[M] -5): 6.83%
- remaining activity at […] ([1]; read-out: M.m PGP on pNPP, activity, control = 100.00, CP log[M] -5.60206): 23.4%
- remaining activity at 1 µM ([1]; read-out: M.m PGP on pNPP, activity, control = 100.00, CP log[M] -6): 47.8%
- remaining activity at 0.5 µM ([1]; read-out: M.m PGP on pNPP, activity, control = 100.00, CP log[M] -6.30103): 65%
- remaining activity at […] ([1]; read-out: M.m PGP on pNPP, activity, control = 100.00, CP log[M] -6.60206): 85%
- remaining activity at 0.125 µM ([1]; read-out: M.m PGP on pNPP, activity, control = 100.00, CP log[M] -6.90309): 91.3%
- remaining activity at 0.0625 µM ([1]; read-out: M.m PGP on pNPP, activity, control = 100.00, CP log[M] -7.20412): 99.4%
- remaining activity at 0.03125 µM ([1]; read-out: M.m PGP on pNPP, activity, control = 100.00, CP log[M] -7.50515): 100%
- IC50 [2]: 370 nM and 400 nM
- TM ([3]; Inhibitor 0.244141 µM): 66.6 °C
- TM ([3]; Inhibitor 0.488281 µM): 66.6 °C
- TM ([3]; Inhibitor 0.976562 µM): 66.8 °C
- TM ([3]; Inhibitor 1.95312 µM): 67.0 °C
- TM ([3]; Inhibitor 3.90625 µM): 67.7 °C
- TM ([3]; Inhibitor 7.8125 µM): 68.6 °C
- TM ([3]; Inhibitor 15.625 µM): 69.6 °C
- TM ([3]; Inhibitor 31.25 µM): 70.5 °C
- TM ([3]; Inhibitor 62.5 µM): 71.0 °C
- TM ([3]; Inhibitor 125 µM): 71.0 °C
- TM ([3]; Inhibitor 250 µM): 70.1 °C
- increase in the maximal PGP melting temperature ([3]; from 66.4 °C (control conditions)): 4.6 °
- mode of PGP inhibition [4]: mixed mode of inhibition
- PGP activity ([4]; 0,5 µM CP1, PG 50 µM): 1.261 µmol Pi/min/mg and 1.442 µmol Pi/min/mg
- PGP activity ([4]; 0,5 µM CP1, PG 100 µM): 3.424 µmol Pi/min/mg and 4.325 µmol Pi/min/mg and 3.784 µmol Pi/min/mg
- PGP activity ([4]; 0,5 µM CP1, PG 200 µM): 7.208 µmol Pi/min/mg and 7.809 µmol Pi/min/mg and 7.689 µmol Pi/min/mg
- PGP activity ([4]; 0,5 µM CP1, PG 300 µM): 11.5358 µmol Pi/min/mg and 12.2568 µmol Pi/min/mg and 11.716 µmol Pi/min/mg
- PGP activity ([4]; 0,5 µM CP1, PG 400 µM): 14.0592 µmol Pi/min/mg and 13.5185 µmol Pi/min/mg
- PGP activity ([4]; 0,5 µM CP1, PG 500 µM): 16.5827 µmol Pi/min/mg and 16.763 µmol Pi/min/mg and 16.2222 µmol Pi/min/mg
- PGP activity ([4]; 0,5 µM CP1, PG 600 µM): 17.6642 µmol Pi/min/mg and 17.3037 µmol Pi/min/mg and 17.4839 µmol Pi/min/mg
- PGP activity ([4]; 0,5 µM CP1, PG 700 µM): 19.4667 µmol Pi/min/mg and 20.1876 µmol Pi/min/mg and 19.2864 µmol Pi/min/mg
- PGP activity ([4]; 0,5 µM CP1, PG 800 µM): 18.0247 µmol Pi/min/mg and 18.9259 µmol Pi/min/mg and 20.0074 µmol Pi/min/mg
- PGP activity ([4]; 1 µM CP1, PG 50 µM): 1.382 µmol Pi/min/mg and 0.901 µmol Pi/min/mg and 0.7809 µmol Pi/min/mg
- PGP activity ([4]; 1 µM CP1, PG 100 µM): 2.763 µmol Pi/min/mg and 2.222 µmol Pi/min/mg and 2.403 µmol Pi/min/mg
- PGP activity ([4]; 1 µM CP1, PG 200 µM): 4.805 µmol Pi/min/mg and 4.745 µmol Pi/min/mg and 4.625 µmol Pi/min/mg
- PGP activity ([4]; 1 µM CP1, PG 300 µM): 7.751 µmol Pi/min/mg and 7.57 µmol Pi/min/mg and 7.39 µmol Pi/min/mg
- PGP activity ([4]; 1 µM CP1, PG 400 µM): 9.373 µmol Pi/min/mg and 8.4716 µmol Pi/min/mg and 9.012 µmol Pi/min/mg
- PGP activity ([4]; 1 µM CP1, PG 500 µM): 11.1753 µmol Pi/min/mg and 10.6346 µmol Pi/min/mg and 10.9951 µmol Pi/min/mg
- PGP activity ([4]; 1 µM CP1, PG 600 µM): 12.437 µmol Pi/min/mg and 11.8963 µmol Pi/min/mg and 13.158 µmol Pi/min/mg
- PGP activity ([4]; 1 µM CP1, PG 700 µM): 13.879 µmol Pi/min/mg and 12.7975 µmol Pi/min/mg
- PGP activity ([4]; 1 µM CP1, PG 800 µM): 14.0592 µmol Pi/min/mg and 13.6988 µmol Pi/min/mg and 12.9778 µmol Pi/min/mg
- PGP activity ([4]; 2 µM CP1, PG 50 µM): 0.6007 µmol Pi/min/mg and 1.021 µmol Pi/min/mg and 0.5406 µmol Pi/min/mg
- PGP activity ([4]; 2 µM CP1, PG 100 µM): 1.562 µmol Pi/min/mg and 1.862 µmol Pi/min/mg and 1.201 µmol Pi/min/mg
- PGP activity ([4]; 2 µM CP1, PG 200 µM): 2.703 µmol Pi/min/mg and 2.643 µmol Pi/min/mg
- PGP activity ([4]; 2 µM CP1, PG 300 µM): 4.867 µmol Pi/min/mg and 5.227 µmol Pi/min/mg and 5.588 µmol Pi/min/mg
- PGP activity ([4]; 2 µM CP1, PG 400 µM): 6.309 µmol Pi/min/mg and 6.128 µmol Pi/min/mg and 5.948 µmol Pi/min/mg
- PGP activity ([4]; 2 µM CP1, PG 500 µM): 7.57 µmol Pi/min/mg and 7.03 µmol Pi/min/mg and 7.21 µmol Pi/min/mg
- PGP activity ([4]; 2 µM CP1, PG 600 µM): 7.751 µmol Pi/min/mg and 7.931 µmol Pi/min/mg
- PGP activity ([4]; 2 µM CP1, PG 700 µM): 7.57 µmol Pi/min/mg and 9.012 µmol Pi/min/mg and 8.291 µmol Pi/min/mg
- PGP activity ([4]; 2 µM CP1, PG 800 µM): 6.849 µmol Pi/min/mg and 8.4716 µmol Pi/min/mg and 8.291 µmol Pi/min/mg
- vmax ([4]; CP 0.5 µM): 39.9 ± 2.9 µmol/min/mg
- vmax ([4]; CP 1.0 µM): 33.6 ± 3.0 µmol/min/mg
- vmax ([4]; CP 2.0 µM): 17.1 ± 2.1 µmol/min/mg
- effect on vmax (reduction) [4, 8]: ~ 3 fold
- increase of KM [4, 8]: ~ 3 fold
- IC50 [5]: n.s.
- solubility [6]: 100 mM (≈ 49.6 mg/mL)
- remaining activity at 16 µM ([7]; activity, control = 100, CP log[M] -4.79588): 22%
- remaining activity at 4 µM ([7]; activity, control = 100, CP log[M] -5.39794): 59.9%
- remaining activity at 2 µM ([7]; activity, control = 100, CP log[M] -5.69897): 72%
- remaining activity at 1 µM ([7]; activity, control = 100, CP log[M] -6): 77.3%
- remaining activity at 0.5 µM ([7]; activity, control = 100, CP log[M] -6.30103): 82.6%
- remaining activity at […] ([7]; activity, control = 100, CP log[M] -6.60206): 92.4%
- remaining activity at 0.125 µM ([7]; activity, control = 100, CP log[M] -6.90309): 90.9%
- remaining activity at 0.0625 µM ([7]; activity, control = 100, CP log[M] -7.20412): 93.9%
- remaining activity at 0.015625 µM ([7]; activity, control = 100, CP log[M] -7.80618): 101%
- IC50 ([7]; phosphatase PDXP/PGP, species M.m., substrate PG): 13800 ± 1430 nM
